From article PMC11143257, “Atomistic mechanism of coupling between cytosolic sensor domain and selectivity filter in TREK K2P channels” (Nature Communications, 2024)
Numbering of substitutions follows the chain as printed. “Also recorded” adds a separate entry of the source.

How the values were obtained:
Test in all cases: MTS probe modification, inside-out patch-clamp
WT TREK-1 = type: cell-based, human; details: 100 µM decyl-MTS for at least 30 s, excised patches, symmetric K+, pH 7.4, +40 mV
Method: (§1) First, we measured WT TREK-1, WT TRAAK and TREK-2^* channels without modifiable cysteine residues as references. […] Note, that patch integrity and channel regulation were tested with either 1 mM tetra-pentyl-ammonium (TPenA) and a short pHi activation step. Next, we conducted systematic cysteine scanning mutagenesis of the entire pCt and examined the effect of charged and aliphatic MTS probes.
(§2) Xenopus laevis oocytes were surgically removed from anesthetized adult females, treated with type II collagenase (Sigma-Aldrich/Merck, Germany) and manually defolliculated. […] Currents were recorded with an EPC10 amplifier (HEKA electronics, Germany) and sampled at 10 kHz or higher and filtered with 3 kHz (-3 dB) or higher as appropriate for the sampling rate. […]
(§3) The fold current increase (fold activation) of a ligand (decyl-MTS) was calculated from the following equation:1 FoldactivationFA=Iactivated/Ibasal with Iactivated represents the stable current level in the presence of 100 µM decyl-MTS and Ibasal the measured current before application of the MTS probe.

TREK-1 T318C = biological target: T1, TREK-1 T318C (Homo sapiens, UniProt O95069, T318C); type: cell-based; details: 100 µM decyl-MTS
T1 construct: expressed in transfected cells; host or cells: Xenopus laevis oocytes (cRNA injection), excised inside-out patches
T1 sequence (O95069 1-426 T318C): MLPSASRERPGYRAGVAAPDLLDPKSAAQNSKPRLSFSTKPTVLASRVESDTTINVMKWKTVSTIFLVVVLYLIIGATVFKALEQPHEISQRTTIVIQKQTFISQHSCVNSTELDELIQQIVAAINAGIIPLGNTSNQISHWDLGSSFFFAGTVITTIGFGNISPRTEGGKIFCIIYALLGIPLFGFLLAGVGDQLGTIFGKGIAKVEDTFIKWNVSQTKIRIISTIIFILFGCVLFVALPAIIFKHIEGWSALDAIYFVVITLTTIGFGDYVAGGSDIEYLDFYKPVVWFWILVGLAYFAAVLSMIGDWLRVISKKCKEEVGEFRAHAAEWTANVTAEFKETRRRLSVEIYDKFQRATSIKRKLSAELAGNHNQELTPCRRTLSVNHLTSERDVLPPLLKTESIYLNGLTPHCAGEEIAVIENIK
Method: as §1
(§4) Xenopus laevis oocytes were surgically removed from anesthetized adult females, treated with type II collagenase (Sigma-Aldrich/Merck, Germany) and manually defolliculated. A solution containing the K^+ channel-specific cRNA at a desired concentration was injected into Dumont stage V - VI oocytes and subsequently incubated at 17 °C in a solution containing (mM): 54 NaCl, […], 2.4 NaHCO3, 0.82 MgSO4 x 7 H2O, 0.41 CaCl2, 0.33 Ca(NO3)2 x 4 H2O and 7.5 TRIS (pH 7.4 adjusted with NaOH/HCl) for 1 - 7 days before use. Patch-clamp recordings in an inside-out configuration under voltage-clamp conditions were performed at room temperature (22 - 24 °C). Patch pipettes were made from thick-walled borosilicate glass GB 200TF-8P (Science Products, Germany), had resistances of 0.2 - 0.5 MΩ (tip diameter of 10 - 25 µm) and filled with a pipette solution (in mM): 120 KCl, 10 HEPES and 3.6 CaCl2 (pH 7.4 adjusted with KOH/HCl). Intracellular bath solutions and compounds were applied to the cytoplasmic side of excised patches for the various K^+ channels via a gravity flow multi-barrel pipette system. The intracellular solution had the following composition (in mM): 120 KCl, 10 HEPES, 2 EGTA, and 1 Pyrophosphate (pH adjusted with KOH/HCl). Currents were recorded with an EPC10 amplifier (HEKA electronics, Germany) and sampled at 10 kHz or higher and filtered with 3 kHz (-3 dB) or higher as appropriate for the sampling rate.
(§5) Tetra-pentyl-ammonium chloride (TPenA) was purchased from Merck (Sigma-Aldrich), prepared as 100 mM stocks in intracellular recording solution, stored at −20 °C and diluted to a final concentration in intracellular recording solution before measurements. Decyl-MethaneThioSulfonate (Decyl-MTS), (2-(trimethylammonium)ethyl)MethaneThioSulfonate bromide (MTS-ET^+) and Sodium (2-sulfonatoethyl)MethaneThioSulfonate (MTS-ES^-) were purchased from Toronto Research Chemicals. MTS-ET^+ was directly dissolved to the desired concentration of 1 mM in the intracellular recording solution before each experiment. MTS-ET^+ was used immediately after dilution for maximally 5 min. Decyl-MTS and […] were prepared as 10 - 100 mM stocks in DMSO and diluted to the desired concentration before the measurements.
as §3

TREK-1 V322C = biological target: T2, TREK-1 V322C (Homo sapiens, UniProt O95069, V322C); type: cell-based; details: 100 µM decyl-MTS
T2 construct: expressed in transfected cells; host or cells: Xenopus laevis oocytes (cRNA injection), excised inside-out patches
T2 sequence (O95069 1-426 V322C): T1 sequence (O95069 1-426 T318C) with C318T, V322C
Method: as §1, §4, §5, §3

WT TRAAK = biological target: T3, WT TRAAK (Homo sapiens, UniProt Q9NYG8); type: cell-based; details: 100 µM decyl-MTS for at least 30 s, symmetrical K+, pH 7.4, +40 mV
T3 construct: expressed in transfected cells; host or cells: Xenopus laevis oocytes (cRNA injection), excised inside-out patches
T3 sequence (Q9NYG8 1-393): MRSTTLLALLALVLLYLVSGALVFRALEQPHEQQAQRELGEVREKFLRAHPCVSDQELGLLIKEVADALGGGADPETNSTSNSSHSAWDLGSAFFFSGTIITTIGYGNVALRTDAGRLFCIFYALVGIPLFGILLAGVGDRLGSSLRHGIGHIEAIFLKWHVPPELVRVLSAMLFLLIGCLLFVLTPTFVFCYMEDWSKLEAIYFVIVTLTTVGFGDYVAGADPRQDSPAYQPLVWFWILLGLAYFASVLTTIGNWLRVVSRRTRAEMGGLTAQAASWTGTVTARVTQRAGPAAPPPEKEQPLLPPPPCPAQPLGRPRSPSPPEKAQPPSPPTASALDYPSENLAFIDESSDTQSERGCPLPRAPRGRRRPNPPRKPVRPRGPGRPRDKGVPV
Method: First, we measured WT TREK-1, WT TRAAK and TREK-2^* channels without modifiable cysteine residues as references. Upon application of 100 µM of decyl-MTS for at least 30 s to the respective channel in excised membrane patches, no change in current amplitudes was recognized (Fig. 2a and Supplementary Fig. 2a, b). Note, that patch integrity and channel regulation were tested with either 1 mM tetra-pentyl-ammonium (TPenA) and a short pHi activation step. Next, we conducted systematic cysteine scanning mutagenesis of the entire pCt and examined the effect of charged and aliphatic MTS probes. […] Remarkably, all hit residues face toward the inner leaflet of the lipid bilayer (Fig. 2b, inlay).
as §2, §3

In the case of `CCCCCCCCCCSS(C)(=O)=O` [decyl-MTS, Decyl-MethaneThioSulfonate], the “effect on current amplitude” value (WT TREK-1) is reported as “no change”, the “full current increase (fold activation)” value (TREK-1 T318C; mean ± s.e.m.) is reported as 33 ± 11 fold and the “effect on current” value (TREK-1 T318C; symmetrical K+, +40 mV, pH 7.4) is reported as “strong and irreversible activation”. The “full current increase (fold activation)” value (TREK-1 V322C; mean ± s.e.m.) was 42 ± 17 fold, the “effect on current” value (TREK-1 V322C; symmetrical K+, +40 mV, pH 7.4) was “strong and irreversible activation” and the “effect on current amplitude” value (WT TRAAK) was “no change; also recorded: no effect”.
